Patent US20130129732A1, “METHOD FOR […]” (LANXESS Deutschland GmbH, priority 2009, published 2013)

Key:
Format in all cases: cell-based
Bacillus subtilis = test: Microbial reduction (MLC) in clear apple juice seeded with Bacillus subtilis, preservative with or without PEF; conditions: 10^3 CFU/ml
Excerpt: (§1) In the examples hereinafter, the Elcrack® apparatus of the Deutsche Institute für Lebensmitteltechnik e. V. [German Institute for food technology] was used for the PEF treatment.
(§2) The treatment proceeded at differing field strengths and energy densities, wherein the pulse width was 20 μs and the pulse frequency 400 Hz.
(§3) In the examples hereinafter, in each case clear apple juice was admixed with stirring by means of a propeller agitator with a microbial or spore suspension, then after approximately 3 minutes, optionally further antimicrobially active substances, and thereafter after approximately 2 minutes, DMDC. The microbial or spore suspension was added in such a manner that a defined amount of cells, generally 10^3 to 10^5 CFU/ml were present in the apple juice.
(§4) The apple juice was then treated by PEF (using the above-described Elcrack® apparatus). As further microbially active substances, sodium benzoate or potassium sorbate were used.
(§5) As a measure for microbial reduction, the median logarithmic cell count reduction (MLC) was determined. In this case the logarithm of the surviving cell count is subtracted from the logarithm of the initial cell count. The higher the MLC value, the higher the microbial reduction and the better the activity is.
(§6) A: Bacillilus subtilis DSM 347 (ATCC 6633) B: Penicillium roqueforti DSM 1079 (ATCC 34908) C: Lactobacillus frigidus DSM 6235 D: Saccharomyces […] DSM 70449 (ATCC 18824)

Lactobacillus frigidus = test: Microbial reduction (MLC) in clear apple juice seeded with Lactobacillus frigidus, preservative with or without PEF; conditions: 10^5 CFU/ml, after 1 week
Excerpt: as §1, §2, §3, §4, §5, §6

Penicillium roqueforti = test: Microbial reduction (MLC) in clear apple juice seeded with Penicillium roqueforti, preservative with or without PEF; conditions: 10^5 CFU/ml
Excerpt: as §1, §2, §3, §4, §5, §6

Saccharomyces cerivisiae = test: Microbial reduction (MLC) in clear apple juice seeded with Saccharomyces cerivisiae, preservative with PEF; conditions: 10^5 CFU/ml, PEF 5 kV/cm, 3-6 J/ml, after 24 h
Excerpt: as §1, §2, §3, §4, §5, §6

[1] = PEF 35 kV/cm, 110-116 J/ml, after 24 h
[2] = PEF 30 kV/cm, 94-104 J/ml, after 24 h

## COC(=O)OC(=O)OC [Example A4, dimethyl dicarbonate]
Bacillus subtilis; PEF 15 kV/cm, 23 J/ml, after 24 h
  MLC (median logarithmic cell count reduction): 1.4/24 h

## COC(=O)OC(=O)OC [Example C1, dimethyl dicarbonate]
Lactobacillus frigidus; PEF 30 kV/cm, 88-93 J/ml
  MLC (median logarithmic cell count reduction): 3.6/1 week

## COC(=O)OC(=O)OC [VB1, dimethyl dicarbonate]
Penicillium roqueforti; no PEF, 21° C., after 24 h
  MLC (median logarithmic cell count reduction): 6.4/24 h

## C/C=C/C=C/C(=O)[O-].[K+] [VA2, potassium sorbate]
Bacillus subtilis; [1]
  MLC (median logarithmic cell count reduction): 0.5/24 h

## COC(=O)OC(=O)OC [Example A5, dimethyl dicarbonate]
Bacillus subtilis; PEF 35 kV/cm, 111 J/ml, after 1 week
  MLC (median logarithmic cell count reduction): 3.0/1 week

## COC(=O)OC(=O)OC [VC1, dimethyl dicarbonate]
Lactobacillus frigidus; no PEF, 21° C.
  MLC (median logarithmic cell count reduction): 2.3/1 week

## C/C=C/C=C/C(=O)[O-].[K+] [VB4, potassium sorbate]
Penicillium roqueforti; [2]
  MLC (median logarithmic cell count reduction): none; heavy

## O=C([O-])c1ccccc1.[Na+] [VD2, sodium benzoate]
Saccharomyces cerivisiae
  MLC (median logarithmic cell count reduction): none; heavy

## O=C([O-])c1ccccc1.[Na+] [VC2, sodium benzoate]
Lactobacillus frigidus; PEF 30 kV/cm, 88-93 J/ml
  MLC (median logarithmic cell count reduction): 2.8/1 week

## COC(=O)OC(=O)OC [Example B5, dimethyl dicarbonate]
Penicillium roqueforti; PEF 30 kV/cm, 94-104 J/ml, after 4 weeks
  MLC (median logarithmic cell count reduction): at least 7/4

## O=C([O-])c1ccccc1.[Na+] [VA1, sodium benzoate]
Bacillus subtilis; [1]
  MLC (median logarithmic cell count reduction): 2.0/24 h

## COC(=O)OC(=O)OC [Example A1, dimethyl dicarbonate]
Bacillus subtilis; [1]
  MLC (median logarithmic cell count reduction): 2.2/24 h

## C/C=C/C=C/C(=O)[O-].[K+] [VC3, potassium sorbate]
Lactobacillus frigidus; PEF 30 kV/cm, 88-93 J/ml
  MLC (median logarithmic cell count reduction): 3.0/1 week

## O=C([O-])c1ccccc1.[Na+] [VB3, sodium benzoate]
Penicillium roqueforti; [2]
  MLC (median logarithmic cell count reduction): none; heavy

## COC(=O)OC(=O)OC [Example D1, dimethyl dicarbonate]
Saccharomyces cerivisiae
  MLC (median logarithmic cell count reduction): min 7/24 h

## C/C=C/C=C/C(=O)[O-].[K+] [VD3, potassium sorbate]
Saccharomyces cerivisiae
  MLC (median logarithmic cell count reduction): none; heavy
